Experimental data taken from patent US20260250250A1, “3-(SULPHONYL OR SULFONIMIDOYL)PROP-2-EN-1-YL]-2-OXO-1,2-DIHYDROPYRIDINE-3-CARBOXAMIDE DERIVATIVES” (Flinder Therapeutics B.V., priority 2022, published 2026).
Counter-ions that a name gives are not always drawn. Like-named read-outs stand apart in the source and are kept apart here.

Legend:
[1] = biological target: T1, human E3 ubiquitin-protein ligase RNF31 (HOIP) (Homo sapiens, UniProt Q96EP0); experiment: Cell-free HTRF-based HOIP inhibition assay; assay type: biochemical
T1 sequence (Q96EP0 695-1072 limits assumed): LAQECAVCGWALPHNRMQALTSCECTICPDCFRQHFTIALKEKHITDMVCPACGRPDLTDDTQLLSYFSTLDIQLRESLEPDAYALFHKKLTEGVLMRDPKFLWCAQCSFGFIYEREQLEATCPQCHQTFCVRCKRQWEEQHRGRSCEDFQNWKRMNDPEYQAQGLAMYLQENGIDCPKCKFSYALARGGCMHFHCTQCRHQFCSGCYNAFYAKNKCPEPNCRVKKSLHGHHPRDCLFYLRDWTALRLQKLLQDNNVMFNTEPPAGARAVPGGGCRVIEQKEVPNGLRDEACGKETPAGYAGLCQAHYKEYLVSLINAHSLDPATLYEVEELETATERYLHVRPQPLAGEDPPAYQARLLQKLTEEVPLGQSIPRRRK
Method in brief: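 Recombinant human HOIP fragment (E. coli) preincubated with compounds (100-0.005 μM, 1% DMSO) and E1 for 1 h at 25° C. E2 and substrates then added; reaction 2.5 h at 25° C. HTRF read-out, excitation 337 nm, emissions 665/620 nm.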

[2] = tested on: NF-κB signaling pathway; experiment: Cell-based dual luciferase NF-κB reporter assay (HEK293 cells, TNF stimulated)
Method in brief: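 HEK293 cells transfected with Firefly luciferase and NF-κB-response-element NanoLuc plasmids; compounds at 100–0.005 µM in 1% DMSO. Cells stimulated with 2.5 ng/mL TNF 30 min after compound addition. Firefly and NanoLuc activities read after 6 h by Nano-Glo dual-luciferase detection.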

[3] = tested on: bladder carcinoma RT4 cell line; experiment: TNF-α-induced cytotoxicity assay (CellTiter-Glo viability); assay type: cell-based
Method in brief: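 RT4 bladder carcinoma cells, 1000 per well, stimulated with 1.25 ng/mL TNFα together with compound for 72 h at 37° C., 5% CO2. Viability read by CellTiter-Glo luminescence, proportional to cellular ATP, as a measure of HOIP-dependent cytotoxicity.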

IC50 [1] [nM] | IC50 ([2]; Homo sapiens, HEK293) [nM] | IC50 ([1]; bin printed as 100 nM < IC50 ≤ 1.0 μM (lower bound in the cell to the left)) [nM] | IC50 ([2]; HEK293, 2.5 ng/mL TNF, bin printed as 1.0 μM < IC50 ≤ 10 μM (lower bound in the cell to the left)) [nM] | Compound | IC50 ([3]; Homo sapiens, RT-4, 72 h) [nM] | IC50 ([3]; RT4, 1.25 ng/mL TNFα, 72 h, bin printed as 1.0 μM < IC50 ≤ 10 μM (lower bound in the cell to the left)) [nM]
≤ 1000 | ≤ 1000 |  |  | N=S(=O)(/C=C/CNC(=O)c1cc2c([nH]c1=O)CCCC2)c1ccccc1 (stereo not drawn) [Example 60, N-[(2E)-3-[imino(oxo)phenyl-λ^6-sulfanyl]prop-2-en-1-yl]-2-oxo-1,2,5,6,7,8-hexahydroquinoline-3-carboxamide] | ≤ 10000 | 
≤ 1000 | ≤ 1000 |  |  | COc1c(C)cc(S(=N)(=O)/C=C/CNC(=O)c2cc3c([nH]c2=O)CCCC3)cc1C (stereo not drawn) [Example 63, N-[(2E)-3-[Imino(4-methoxy-3,5-dimethylphenyl)oxo-λ^6-sulfanyl]prop-2-en-1-yl]-2-oxo-1,2,5,6,7,8-hexahydroquinoline-3-carboxamide] | ≤ 1000 | 
≤ 1000 | ≤ 1000 |  |  | COc1cccc(S(=N)(=O)/C=C/CNC(=O)c2cc3c([nH]c2=O)CCCC3)c1 (stereo not drawn) [Example 64, N-[(2E)-3-[imino(3-methoxyphenyl)oxo-λ^6-sulfanyl]prop-2-en-1-yl]-2-oxo-1,2,5,6,7,8-hexahydroquinoline-3-carboxamide] | ≤ 1000 | 
≤ 1000 | ≤ 1000 |  |  | N=S(=O)(/C=C/CNC(=O)c1cc2c([nH]c1=O)CCCC2)c1ccc(OC(F)(F)F)cc1 (stereo not drawn) [Example 65, N-[(2E)-3-[imino(oxo)[4-(trifluoromethoxy)phenyl]-%^6-sulfanyl]prop-2-en-1-yl]-2-oxo-1,2,5,6,7,8-hexahydroquinoline-3-carboxamide] | ≤ 1000 | 
≤ 10000 | ≤ 10000 |  |  | O=C(NC/C=C/S(=O)(=O)c1ccccc1)c1cc2c([nH]c1=O)CCNC2 [Example 66, N-[(2E)-3-(benzenesulfonyl)prop-2-en-1-yl]-2-oxo-1,2,5,6,7,8-hexahydro-1,6-naphthyridine-3-carboxamide hydrochloride] | ≤ 10000 | 
≤ 1000 | ≤ 10000 |  |  | O=C(NC/C=C/S(=O)(=O)c1ccccc1)c1cc2c([nH]c1=O)CCN(C(=O)OC1COC1)C2 [Example 67, oxetan-3-yl 3-{[(2E)-3-(benzenesulfonyl)prop-2-en-1-yl]carbamoyl}-2-oxo-1,2,5,6,7,8-hexahydro-1,6-naphthyridine-6-carboxylate] | ≤ 100000 | 
≤ 100 | ≤ 10000 |  |  | N=S(=O)(/C=C/CNC(=O)c1cc2c([nH]c1=O)CCN(C(=O)OCC1CC1)C2)c1ccc(F)cc1 (stereo not drawn) [Example 68, cyclopropylmethyl 3-{[(2E)-3-[(4-fluorophenyl)(imino)oxo-A*-sulfanyl]prop-2-en-1-yl]carbamoyl}-2-oxo-1,2,5,6,7,8-hexahydro-1,6-naphthyridine-6-carboxylate] | ≤ 10000 | 
≤ 100 | ≤ 1000 |  |  | O=C(NC/C=C/S(=O)(=O)c1ccccc1)c1cc2c([nH]c1=O)CCN(C(=O)OCC1CC1)C2 [Example 69, cyclopropylmethyl 3-{[(2E)-3-(benzenesulfonyl)prop-2-en-1-yl]carbamoyl}-2-oxo-1,2,5,6,7,8-hexahydro-1,6-naphthyridine-6-carboxylate] | ≤ 1000 | 
≤ 100 | ≤ 1000 |  |  | O=C(NC/C=C/S(=O)(=O)c1ccccc1)c1cc2c([nH]c1=O)CCN(C(=O)OC1CCC1)C2 [Example 70, cyclobutyl 3-{[(2E)-3-(benzenesulfonyl)prop-2-en-1-yl]carbamoyl}-2-oxo-1,2,5,6,7,8-hexahydro-1,6-naphthyridine-6-carboxylate] | ≤ 1000 | 
≤ 1000 | ≤ 100000 |  |  | Cc1nnc(COC(=O)N2CCc3[nH]c(=O)c(C(=O)NC/C=C/S(=O)(=O)c4ccccc4)cc3C2)o1 [Example 71, (5-methyl-1,3,4-oxadiazol-2-yl)methyl 3-{[(2E)-3-(benzenesulfonyl)prop-2-en-1-yl]carbamoyl}-2-oxo-1,2,5,6,7,8-hexahydro-1,6-naphthyridine-6-carboxylate] | ≤ 100000 | 
≤ 1000 | ≤ 1000 |  |  | CC(OC(=O)N1CCc2[nH]c(=O)c(C(=O)NC/C=C/S(=O)(=O)c3ccccc3)cc2C1)C(F)(F)F (stereo not drawn) [Example 72, 1,1,1-trifluoropropan-2-yl 3-{[(2E)-3-(benzenesulfonyl)prop-2-en-1-yl]carbamoyl}-2-oxo-1,2,5,6,7,8-hexahydro-1,6-naphthyridine-6-carboxylate] | ≤ 1000 | 
≤ 100 | ≤ 1000 |  |  | CC1(C)CC1COC(=O)N1CCc2[nH]c(=O)c(C(=O)NC/C=C/S(=O)(=O)c3ccccc3)cc2C1 (stereo not drawn) [Example 73, (2,2-dimethylcyclopropyl)methyl 3-{[(2E)-3-(benzenesulfonyl)prop-2-en-1-yl]carbamoyl}-2-oxo-1,2,5,6,7,8-hexahydro-1,6-naphthyridine-6-carboxylate] | ≤ 1000 | 
≤ 1000 | ≤ 1000 |  |  | O=C(NC/C=C/S(=O)(=O)c1ccccc1)c1cc2c([nH]c1=O)CCN(C(=O)OCC1CC1(F)F)C2 (stereo not drawn) [Example 74, (2,2-difluorocyclopropyl)methyl 3-{[(2E)-3-(benzenesulfonyl)prop-2-en-1-yl]carbamoyl}-2-oxo-1,2,5,6,7,8-hexahydro-1,6-naphthyridine-6-carboxylate] | ≤ 10000 | 
≤ 1000 | ≤ 10000 |  |  | COCC(C)OC(=O)N1CCc2[nH]c(=O)c(C(=O)NC/C=C/S(=O)(=O)c3ccccc3)cc2C1 (stereo not drawn) [Example 75, 1-methoxypropan-2-vi 3-{[(2E)-3-(benzenesulfonyl)prop-2-en-1-yl]carbamoyl}-2-oxo-1,2,5,6,7,8-hexahydro-1,6-naphthyridine-6-carboxylate] | ≤ 10000 | 
≤ 1000 | ≤ 10000 |  |  | O=C(NC/C=C/S(=O)(=O)c1ccccc1)c1cc2c([nH]c1=O)CCN(C(=O)OCCF)C2 [Example 76, 2-fluoroethyl 3-{[(2E)-3-(benzenesulfonyl)prop-2-en-1-yl]carbamoyl}-2-oxo-1,2,5,6,7,8-hexahydro-1,6-naphthyridine-6-carboxylate] | ≤ 10000 | 
≤ 100 | ≤ 1000 |  |  | O=C(NC/C=C/S(=O)(=O)c1ccccc1)c1cc2c([nH]c1=O)CCN(C(=O)OCC(F)F)C2 [Example 77, 2,2-Difluoroethyl 3-{[(2E)-3-(benzenesulfonyl)prop-2-en-1-yl]carbamoyl}-2-oxo-1,2,5,6,7,8-hexahydro-1,6-naphthyridine-6-carboxylate] | ≤ 10000 | 
≤ 1000 | ≤ 1000 |  |  | O=C(NC/C=C/S(=O)(=O)c1ccccc1)c1cc2c([nH]c1=O)CCN(C(=O)OC1CC1)C2 [Example 78, cyclopropyl 3-{[(2E)-3-(benzenesulfonyl)prop-2-en-1-yl]carbamoyl}-2-oxo-1,2,5,6,7,8-hexahydro-1,6-naphthyridine-6-carboxylate] | ≤ 10000 | 
≤ 100 | ≤ 10000 |  |  | O=C(NC/C=C/S(=O)(=O)c1ccccc1)c1cc2c([nH]c1=O)CCN(C(=O)OC1CCC3(CC1)COC3)C2 [Example 79, 2-Oxaspiro[3.5]nonan-7-vi 3-{[(2E)-3-(benzenesulfonyl)prop-2-en-1-yl]carbamoyl}-2-oxo-1,2,5,6,7,8-hexahydro-1,6-naphthyridine-6-carboxylate] | ≤ 10000 | 
≤ 1000 | ≤ 100000 |  |  | COCCOC(=O)N1CCc2[nH]c(=O)c(C(=O)NC/C=C/S(=O)(=O)c3ccccc3)cc2C1 [Example 80, 2-Methoxyethyl 3-{[(2E)-3-(benzenesulfonyl)prop-2-en-1-yl]carbamoyl}-2-oxo-1,2,5,6,7,8-hexahydro-1,6-naphthyridine-6-carboxylate] | ≤ 10000 | 
≤ 1000 | ≤ 10000 |  |  | O=C(NCC=CS(=O)(=O)c1ccccc1)c1cc2c([nH]c1=O)CCN(C(=O)OC1CCOC1)C2 [Example 81, (3S)-Oxolan-3-vi 3-{[(2E)-3-(benzenesulfonyl)prop-2-en-1-yl]carbamoyl}-2-oxo-1,2,5,6,7,8-hexahydro-1,6-naphthyridine-6-carboxylate] | ≤ 10000 | 
 |  | ≤ 1000 | ≤ 10000 | O=C(NCC=CS(=O)(=O)c1ccccc1)c1cc2c([nH]c1=O)CCN(C(=O)OC1CCOC1)C2 [Example 82, (3R)-oxolan-3-vi 3-{[(2E)-3-(benzenesulfonyl)prop-2-en-1-yl]carbamoyl}-2-oxo-1,2,5,6,7,8-hexahydro-1,6-naphthyridine-6-carboxylate] |  | ≤ 10000
≤ 1000 | ≤ 100000 |  |  | O=C(NC/C=C/S(=O)(=O)c1ccccc1)c1cc2c([nH]c1=O)CCN(C(=O)OCCN1CCCCC1=O)C2 [Example 83, 2-(2-Oxopiperidin-1-yl)ethyl 3-{[(2E)-3-(benzenesulfonyl)prop-2-en-1-yl]carbamoyl}-2-oxo-1,2,5,6,7,8-hexahydro-1,6-naphthyridine-6-carboxylate] | ≤ 100000 | 
